Data reported in publication PMC6259751, “Investigating Spectrum of Biological Activity of 4- and 5-Chloro-2-hydroxy-N-[2-(arylamino)-1-alkyl-2-oxoethyl]benzamides” (Molecules, 2011).
≈ marks a conversion by molar mass, not a printed value. Where “and” joins values, the source holds several entries; their conditions need not be identical. Identical values can stand only once. Like-named read-outs stand apart in the source and are kept apart here.

Tests used:
[1] = tested on: Enterococcus sp. J 14365/08; experiment: In vitro antibacterial susceptibility testing (broth microdilution); details: read-out: MIC EF
[2] = tested on: methicilin resistant Staphylococcus aureus H 5996/08; experiment: as above; details: MRSA, read-out: MIC MRSA
Candida tropicalis 156 = experiment: In vitro antifungal susceptibility testing (broth microdilution); assay type: cell-based; details: M27-A2 for yeasts, IC80 value
[3] = tested on: Staphylococcus aureus CCM 4516/08; experiment: In vitro antibacterial susceptibility testing (broth microdilution); details: read-out: MIC SA
[4] = tested on: Mycobacterium tuberculosis MTB CNCTC My 331/88; experiment: In vitro antimycobacterial evaluation; assay type: cell-based; details: IC90 value
[5] = tested on: Mycobacterium kansasii MK CNCTC My 235/80; experiment: In vitro antimycobacterial evaluation; assay type: cell-based; details: IC90 value
[6] = tested on: photosynthetic electron transport (PET) in spinach chloroplasts; experiment: Inhibition of photosynthetic electron transport (PET) in spinach chloroplasts; assay type: biochemical, Spinacia oleracea L.; details: DCPIP photoreduction
Protocol: Chloroplasts were prepared from spinach (Spinacia oleracea L.) according to Masarovicova and Kralova. The inhibition of photosynthetic electron transport (PET) in spinach chloroplasts was determined spectrophotometrically (Genesys 6, Thermo Scientific, USA), using an artificial electron acceptor 2,6-dichlorophenol-indophenol (DCIPP) according to Kralova et al., and the rate of photosynthetic electron transport was monitored as a photoreduction of DCPIP. The measurements were carried out in phosphate buffer (0.02 mol/L, pH 7.2) containing sucrose (0.4 mol/L), MgCl2 (0.005 mol/L) and NaCl (0.015 mol/L). The chlorophyll content was 30 mg/L in these experiments and the samples were irradiated (~100 W/m^2) from 10 cm distance with a halogen lamp (250 W) using a 4 cm water filter to prevent warming of the samples. The studied compounds were dissolved in DMSO due to their limited water solubility. […] The inhibitory efficiency of the studied compounds was expressed by IC50 values, i.e. by molar concentration of the compounds causing 50% decrease in the oxygen evolution rate relative to the untreated control.

[7] = tested on: Trichophyton mentagrophytes 445; experiment: In vitro antifungal susceptibility testing (broth microdilution); assay type: cell-based; details: M38-A for moulds, IC50 value, read-out: MIC TM
[8] = Lipophilicity determination by RP-HPLC (capacity factor k / log k); assay type: physicochemical; details: C18 column, MeOH 70% / H2O 30%, isocratic
Protocol: Hydrophobicities (log P/Clog P) of compounds 8 and 9 were calculated using two commercially available programs (ChemOffice Ultra 10.0 and ACD/LogP) and measured by means of RP-HPLC determination of capacity factors k with subsequent calculation of log k. The procedure was performed under isocratic conditions with methanol as an organic modifier in the mobile phase using an end-capped non-polar C18 stationary RP column. The results are shown in Table 1 and illustrated in Figure 1.
A Waters Alliance 2695 XE HPLC separation module and a Waters Photodiode Array Detector 2996 (Waters Corp., Milford, MA, USA) were used. A Symmetry® C18 5 μm, 4.6 × 250 mm, Part No. WAT054275 (Waters Corp., Milford, MA, USA) chromatographic column was used. The HPLC separation process was monitored by Empower™ 2 Chromatography Data Software, Waters 2009 (Waters Corp., Milford, MA, USA). A mixture of MeOH p.a. (70%) and H2O-HPLC – Mili-Q Grade (30%) was used as a mobile phase. The total flow of the column was 1.0 mL/min, injection volume, 30 μL, column temperature, 30 °C and sample temperature, 10 °C. The detection wavelength of 210 nm was chosen. The KI methanolic solution was used for the dead time (tD) determination. Retention times (tR) were measured in minutes. The capacity factors k were calculated using the Empower™ 2 Chromatography Data Software according to formula k = (tR - tD)/tD, where tR is the retention time of the solute, whereas tD denotes the dead time obtained using an unretained analyte. Log k, calculated from the capacity factor k, is used as the lipophilicity index converted to log P scale.

[9] = tested on: Staphylococcus epidermidis H 6966/08; experiment: In vitro antibacterial susceptibility testing (broth microdilution); details: read-out: MIC SE
[10] = assay type: physicochemical; details: for precipitation in the testing medium: antimycobacterial testing medium
Protocol: (§1) The discussed amides were tested against three Mycobacteria strains. […] Activities of some benzamides, especially against M. avium and M. kansasii, considerably exceeded the activity of isoniazid (INH) used as an internal standard. The discussed compounds can be divided according to the activities against individual Mycobacteria strains, and structure-activity relationships within Group 1, Group 2 and Group 4 can be discussed.

[11] = tested on: Mycobacterium avium MA CNCTC My 330/88; experiment: In vitro antimycobacterial evaluation; assay type: cell-based; details: IC90 value
[12] = tested on: three Mycobacteria strains; experiment: Antimycobacterial screening, summary statements (strain not specified); assay type: cell-based, Mycobacterium sp.; details: Mycobacterium, read-out: antitubercular / antimycobacterial activity (MIC)
Protocol: as §1
The in vitro antimycobacterial activity of all prepared compounds was evaluated against Mycobacterium tuberculosis MTB CNCTC My 331/88 (identical with H37RV and ATCC 27294, dilution of the strain was 10^−3 μmol/L), Mycobacterium avium MA CNCTC My 330/88 (identical with ATCC 25291, dilution of the strain was 10^−5 μmol/L) and Mycobacteriumkansasii MK CNCTC My 235/80 (identical with ATCC 12478, dilution of the strain was 10^−4 μmol/L) in the Laboratory for mycobacterial diagnostics and TB, Institute of Public Health in Ostrava, Czech Republic. All strains were obtained from the Czech National Collection of Type Cultures (CNCTC). Antimycobacterial activities were determined in the Sula semisynthetic medium (Sevac, Prague, Czech Republic). […] Reading was carried out on a stand with a bottom magnifying mirror, macroscopically, with the use of magnifying glass. The growth in plates was evaluated after 14 and 21 days of the incubation. […]

[13] = tested on: photosynthetic electron transport (PET) in spinach chloroplasts; parameters: method as in earlier work; details: standard ref 41; cited from earlier work

Structure (SMILES)	MIC ([1]; SP.J14365/08, 24 h) [µM]	MIC ([1]; SP.J14365/08, 48 h) [µM]	MIC ([2]; 24 h) [µM]	MIC ([2]; 48 h) [µM]	MIC (Candida tropicalis 156; 24h) [µM]	MIC (Candida tropicalis 156; 48h) [µM]	MIC ([3]; CCM4516, 24 h) [µM]	MIC ([3]; CCM4516, 48 h) [µM]	MIC ([4]; 14h) [µM]	MIC ([4]; 21h) [µM]	MIC ([5]; 14h) [µM]	MIC ([5]; 21h) [µM]	IC50 [6] [µM]	MIC ([7]; 72h) [µM]	MIC ([7]; 120h) [µM]	log k [8]	MIC ([9]; H6966/08, 24 h) [µM]	MIC ([9]; H6966/08, 48 h) [µM]	MIC ([11]; 14h) [µM]	MIC ([11]; 21h) [µM]	further results
C[C@H](NC(=O)c1cc(Cl)ccc1O)C(=O)Nc1cccc(Cl)c1 [8b]	> 250	> 250	> 250	> 250	> 125	> 125	> 250	> 250	250 (≈ 88.3 µg/mL)	> 500	500 (≈ 177 µg/mL)	> 500	41.7	125 (≈ 44.2 µg/mL)	125 (≈ 44.2 µg/mL)	0.41 and 0.4166	> 250	> 250	500 (≈ 177 µg/mL)	> 500	solubility in comparison with the initial esters [10]: lower solubility; precipitation in the testing medium [10]: precipitation in the testing medium
O=C(N[C@H](Cc1ccccc1)C(=O)Nc1ccc(Cl)cc1)c1cc(Cl)ccc1O [8l, N-{(1R)-1-benzyl-2-[(4-chlorophenyl)amino]-2-oxoethyl}-5-chloro-2-hydroxybenzamide]	> 125	> 125	> 125	> 125	125 (≈ 53.7 µg/mL)	> 125	> 125	> 125	16 (≈ 6.87 µg/mL)	16 (≈ 6.87 µg/mL)	32 (≈ 13.7 µg/mL)	32 (≈ 13.7 µg/mL)	33.7	125 (≈ 53.7 µg/mL)	125 (≈ 53.7 µg/mL)	0.7329	> 125	> 125	32 (≈ 13.7 µg/mL)	32 (≈ 13.7 µg/mL)	MIC [12]: 32 µM (≈ 13.7 µg/mL)
O=C(N[C@@H](Cc1ccccc1)C(=O)Nc1ccc(Cl)c(Cl)c1)c1cc(Cl)ccc1O [8q]	> 500	> 500	> 500	> 500	> 125	> 125	> 500	> 500	125 (≈ 58 µg/mL)	> 1000	250 (≈ 116 µg/mL)	> 1000	74.2	> 125	> 125	0.9485	> 500	> 500	125 (≈ 58 µg/mL)	> 1000	solubility in comparison with the initial esters [10]: lower solubility; precipitation in the testing medium [10]: precipitated from testing medium
O=C(N[C@H](Cc1ccccc1)C(=O)Nc1ccc(Cl)c(Cl)c1)c1cc(Cl)ccc1O [8r]	> 500	> 500	> 500	> 500	> 125	> 125	> 500	> 500	125 (≈ 58 µg/mL)	> 1000	250 (≈ 116 µg/mL)	> 1000		> 125	> 125	0.9408	> 500	> 500	125 (≈ 58 µg/mL)	> 1000	solubility in comparison with the initial esters [10]: lower solubility; precipitation in the testing medium [10]: precipitated from testing medium
C[C@H](NC(=O)c1ccc(Cl)cc1O)C(=O)Nc1ccc(Cl)cc1 [9a]	500 (≈ 177 µg/mL)	500 (≈ 177 µg/mL)	500 (≈ 177 µg/mL)	500 (≈ 177 µg/mL)	> 250	> 250	250 (≈ 88.3 µg/mL)	500 (≈ 177 µg/mL)	62.5 (≈ 22.1 µg/mL)	62.5 (≈ 22.1 µg/mL)	125 (≈ 44.2 µg/mL)	125 (≈ 44.2 µg/mL)	61.5	> 250	> 250	0.4934	250 (≈ 88.3 µg/mL)	250 (≈ 88.3 µg/mL)	125 (≈ 44.2 µg/mL)	125 (≈ 44.2 µg/mL)	
CC(C)[C@H](NC(=O)c1ccc(Cl)cc1O)C(=O)Nc1ccc(Cl)cc1 [9c]	> 500	> 500	> 500	> 500	> 125	> 125	> 500	> 500	62.5 (≈ 23.8 µg/mL)	62.5 (≈ 23.8 µg/mL)	62.5 (≈ 23.8 µg/mL)	62.5 (≈ 23.8 µg/mL)	23.8	> 125	> 125	0.6839	> 500	> 500	62.5 (≈ 23.8 µg/mL)	125 (≈ 47.7 µg/mL)	
O=C(N[C@H](Cc1ccccc1)C(=O)Nc1ccc(Cl)cc1)c1ccc(Cl)cc1O [9f, N-{(1R)-1-benzyl-2-[(4-chlorophenyl)amino]-2-oxoethyl}-4-chloro-2-hydroxybenzamide]	> 500	> 500	> 500	> 500	> 125	> 125	> 500	> 500	32 (≈ 13.7 µg/mL)	32 (≈ 13.7 µg/mL)	32 (≈ 13.7 µg/mL)	32 (≈ 13.7 µg/mL)	23.5	> 125	> 125	0.7479	> 500	> 500	32 (≈ 13.7 µg/mL)	32 (≈ 13.7 µg/mL)	MIC [12]: 32 µM (≈ 13.7 µg/mL)
CN(C)C(=O)Nc1ccc(Cl)c(Cl)c1 [DCMU, 3-(3,4-dichlorophenyl)-1,1-dimethylurea]																					IC50 [13]: ~1.9 µM and 1.9 µM
